These compounds were tested against T1, active p38 alpha enzyme (Upstate Biotechnology) (Homo sapiens, UniProt Q16539) (assay: p38α biochemical assay (ATP turnover, luminescent detection, Cambrex PKlight)). Settings: p38α kinase; Table 1 Biological Activity.
T1 construct: purchased Upstate Biotechnology
Summary of the method: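 In this kinase reaction, p38α used MapkapK2 as phosphorylation substrate at low ATP (1.4 uM final) over 2 hours at 30C, and activity was followed as ATP turnover by luminescence.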

T1 sequence (Q16539 whole entry): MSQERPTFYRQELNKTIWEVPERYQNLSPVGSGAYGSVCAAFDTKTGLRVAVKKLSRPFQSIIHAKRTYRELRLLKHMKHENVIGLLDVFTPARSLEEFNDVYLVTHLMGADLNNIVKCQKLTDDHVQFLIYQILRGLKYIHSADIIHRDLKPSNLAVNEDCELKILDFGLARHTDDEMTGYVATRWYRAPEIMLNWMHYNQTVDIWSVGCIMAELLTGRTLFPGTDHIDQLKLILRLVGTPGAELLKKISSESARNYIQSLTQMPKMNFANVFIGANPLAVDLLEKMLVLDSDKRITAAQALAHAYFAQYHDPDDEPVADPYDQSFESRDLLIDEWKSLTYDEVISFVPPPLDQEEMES

Row | Compound | IC50
1 | CCCCN(C)Cc1nc(-c2ccc(F)cc2)c(-c2nc(C(=O)NC(C)C)cs2)o1 [Example 1194] | > 1000 nM
2 | CCN(CCO)Cc1nc(-c2ccc(F)cc2)c(-c2nc(C(=O)NC(C)C)cs2)o1 [Example 1195] | > 1000 nM
3 | CC(C)NC(=O)c1csc(-c2oc(CN3CCSC3)nc2-c2ccc(F)cc2)n1 [Example 1196] | > 1000 nM
4 | CC(C)NC(=O)c1csc(-c2oc(CN3CCCCC3C)nc2-c2ccc(F)cc2)n1 (centres unmarked) [Example 1197] | > 1000 nM
5 | CC1CCN(Cc2nc(-c3ccc(F)cc3)c(-c3nc(C(=O)NC(C)C)cs3)o2)CC1 [Example 1198] | > 1000 nM
6 | CC(C)NC(=O)c1csc(-c2oc(CN3CCN(C)CC3)nc2-c2ccc(F)cc2)n1 [Example 1199] | > 1000 nM
7 | CC(C)NC(=O)c1csc(-c2oc(CN3CCCC3CO)nc2-c2ccc(F)cc2)n1 (centres unmarked) [Example 1200] | > 1000 nM
8 | CC(C)NC(=O)c1csc(-c2oc(CN3CCC[C@@H]3CO)nc2-c2ccc(F)cc2)n1 [Example 1201] | > 1000 nM
9 | CCCCN(CC)Cc1nc(-c2ccc(F)cc2)c(-c2nc(C(=O)NC(C)C)cs2)o1 [Example 1202] | > 1000 nM
10 | CCCN(CCC)Cc1nc(-c2ccc(F)cc2)c(-c2nc(C(=O)NC(C)C)cs2)o1 [Example 1203] | > 1000 nM
11 | CC(C)NC(=O)c1csc(-c2oc(CN3CCSCC3)nc2-c2ccc(F)cc2)n1 [Example 1204] | > 1000 nM
12 | CC(C)NC(=O)c1csc(-c2oc(CN(CCO)CCO)nc2-c2ccc(F)cc2)n1 [Example 1205] | > 1000 nM
13 | CC1CC(C)CN(Cc2nc(-c3ccc(F)cc3)c(-c3nc(C(=O)NC(C)C)cs3)o2)C1 (centres unmarked) [Example 1206] | > 1000 nM
14 | CC(C)NC(=O)c1csc(-c2oc(CN(C)C3CCCCC3)nc2-c2ccc(F)cc2)n1 [Example 1207] | > 1000 nM
15 | CC(C)NC(=O)c1csc(-c2oc(CN3C(C)CCCC3C)nc2-c2ccc(F)cc2)n1 (centres unmarked) [Example 1208] | > 1000 nM
16 | CC(C)NC(=O)c1csc(-c2oc(CN3CCC(N(C)C)C3)nc2-c2ccc(F)cc2)n1 (centres unmarked) [Example 1209] | > 1000 nM
17 | CC(C)NC(=O)c1csc(-c2oc(CN3C[C@@H](C)N[C@@H](C)C3)nc2-c2ccc(F)cc2)n1 [Example 1210] | > 1000 nM
18 | CC(C)NC(=O)c1csc(-c2oc(CN3CCCC(CO)C3)nc2-c2ccc(F)cc2)n1 (centres unmarked) [Example 1211] | > 1000 nM
19 | COC[C@@H]1CCCN1Cc1nc(-c2ccc(F)cc2)c(-c2nc(C(=O)NC(C)C)cs2)o1 [Example 1212] | > 1000 nM
20 | CC(C)NC(=O)c1csc(-c2oc(CN3CC(C)OC(C)C3)nc2-c2ccc(F)cc2)n1 (centres unmarked) [Example 1213] | > 1000 nM
21 | CC(C)NC(=O)c1csc(-c2oc(CN3CCCCC3CO)nc2-c2ccc(F)cc2)n1 (centres unmarked) [Example 1214] | > 1000 nM
22 | CCN(CCCCO)Cc1nc(-c2ccc(F)cc2)c(-c2nc(C(=O)NC(C)C)cs2)o1 [Example 1215] | > 1000 nM
23 | CC(C)NC(=O)c1csc(-c2oc(CN3Cc4ccccc4C3)nc2-c2ccc(F)cc2)n1 [Example 1216] | > 1000 nM

Row | Compound | IC50
24 | CC(C)NC(=O)c1csc(-c2oc(CN(C)Cc3ccccc3)nc2-c2ccc(F)cc2)n1 [Example 1217] | > 1000 nM
25 | CCN(Cc1nc(-c2ccc(F)cc2)c(-c2nc(C(=O)NC(C)C)cs2)o1)C1CCCCC1 [Example 1218] | > 1000 nM
26 | CC(C)NC(=O)c1csc(-c2oc(CN3CCC(C(N)=O)CC3)nc2-c2ccc(F)cc2)n1 [Example 1219] | > 1000 nM
27 | CC(=O)N[C@H]1CCN(Cc2nc(-c3ccc(F)cc3)c(-c3nc(C(=O)NC(C)C)cs3)o2)C1 [Example 1220] | > 1000 nM
28 | CC(C)NC(=O)c1csc(-c2oc(CN3CCCC(C(N)=O)C3)nc2-c2ccc(F)cc2)n1 (centres unmarked) [Example 1222] | > 1000 nM
29 | CC(C)NC(=O)c1csc(-c2oc(CN3CCCCC3CCO)nc2-c2ccc(F)cc2)n1 (centres unmarked) [Example 1223] | > 1000 nM
30 | CC(C)NC(=O)c1csc(-c2oc(CN3CCc4ccccc4C3)nc2-c2ccc(F)cc2)n1 [Example 1224] | > 1000 nM
31 | CCN(Cc1ccccc1)Cc1nc(-c2ccc(F)cc2)c(-c2nc(C(=O)NC(C)C)cs2)o1 [Example 1225] | > 1000 nM
32 | CC(C)NC(=O)c1csc(-c2oc(CN(C)CCc3ccccc3)nc2-c2ccc(F)cc2)n1 [Example 1227] | > 1000 nM
33 | CC(C)NC(=O)c1csc(-c2oc(CN(C)CCc3ccccn3)nc2-c2ccc(F)cc2)n1 [Example 1228] | > 1000 nM
34 | CC(C)NC(=O)c1csc(-c2oc(CN3CCCC4CCCCC43)nc2-c2ccc(F)cc2)n1 (centres unmarked) [Example 1230] | > 1000 nM
35 | C=CCN(Cc1nc(-c2ccc(F)cc2)c(-c2nc(C(=O)NC(C)C)cs2)o1)C1CCCCC1 [Example 1231] | > 1000 nM
36 | COC(=O)C1CCN(Cc2nc(-c3ccc(F)cc3)c(-c3nc(C(=O)NC(C)C)cs3)o2)CC1 [Example 1232] | > 1000 nM
37 | CC(C)NC(=O)c1csc(-c2oc(CN(Cc3ccccc3)C(C)C)nc2-c2ccc(F)cc2)n1 [Example 1233] | > 1000 nM
38 | CC(C)NC(=O)c1csc(-c2oc(CN(CCO)Cc3ccccc3)nc2-c2ccc(F)cc2)n1 [Example 1234] | > 1000 nM
39 | CC(C)NC(=O)c1csc(-c2oc(CN(C)CC(O)c3ccccc3)nc2-c2ccc(F)cc2)n1 (centres unmarked) [Example 1235] | > 1000 nM
40 | CC(C)NC(=O)c1csc(-c2oc(CN3CCC(O)(O)CC3)nc2-c2ccc(F)cc2)n1 [Example 1236] | > 1000 nM
41 | CCOC(=O)C1CCN(Cc2nc(-c3ccc(F)cc3)c(-c3nc(C(=O)NC(C)C)cs3)o2)CC1 [Example 1237] | > 1000 nM
42 | CCOC(=O)C1CCCN(Cc2nc(-c3ccc(F)cc3)c(-c3nc(C(=O)NC(C)C)cs3)o2)C1 (centres unmarked) [Example 1238] | > 1000 nM
43 | CCOC(=O)N1CCN(Cc2nc(-c3ccc(F)cc3)c(-c3nc(C(=O)NC(C)C)cs3)o2)CC1 [Example 1239] | > 1000 nM
44 | CC(C)NC(=O)c1csc(-c2oc(CN(CCC#N)Cc3cccnc3)nc2-c2ccc(F)cc2)n1 [Example 1240] | > 1000 nM
45 | CC(C)NC(=O)c1csc(-c2oc(CN3CCN(c4ccccc4)CC3)nc2-c2ccc(F)cc2)n1 [Example 1241] | > 1000 nM

Further lines, results first:

Row | IC50 | Compound
46 | > 1000 nM | CC(C)NC(=O)c1csc(-c2oc(CNCC(=O)c3ccccc3)nc2-c2ccc(F)cc2)n1 [Example 1163]
47 | > 1000 nM | CCOC(=O)N1CCC(NCc2nc(-c3ccc(F)cc3)c(-c3nc(C(=O)NC(C)C)cs3)o2)CC1 [Example 1164]
48 | > 1000 nM | CC(C)NC(=O)c1csc(-c2oc(CNCCCNC(=O)OC(C)(C)C)nc2-c2ccc(F)cc2)n1 [Example 1165]
49 | > 1000 nM | CC(C)NC(=O)c1csc(-c2oc(CNCc3ccc(C(F)(F)F)cc3)nc2-c2ccc(F)cc2)n1 [Example 1166]
50 | > 1000 nM | CC(C)NC(=O)c1csc(-c2oc(CNCc3cccc(C(F)(F)F)c3)nc2-c2ccc(F)cc2)n1 [Example 1167]
51 | > 1000 nM | CC(C)NC(=O)c1csc(-c2oc(CNCc3ccc(Cl)c(Cl)c3)nc2-c2ccc(F)cc2)n1 [Example 1168]
52 | > 1000 nM | CC(C)NC(=O)c1csc(-c2oc(CNCc3ccc(Cl)cc3Cl)nc2-c2ccc(F)cc2)n1 [Example 1169]
53 | ≤ 1000 nM | CC(C)NC(=O)c1csc(-c2oc(CNC3CCN(Cc4ccccc4)C3)nc2-c2ccc(F)cc2)n1 (centres unmarked) [Example 1170]
54 | > 1000 nM | COc1ccc(OC)c(CCNCc2nc(-c3ccc(F)cc3)c(-c3nc(C(=O)NC(C)C)cs3)o2)c1 [Example 1171]
55 | > 1000 nM | CC(C)NC(=O)c1csc(-c2oc(CNCc3ccc(N(C)C)cc3)nc2-c2ccc(F)cc2)n1 [Example 1172]
56 | ≤ 1000 nM | COc1ccc(CNCc2nc(-c3ccc(F)cc3)c(-c3nc(C(=O)NC(C)C)cs3)o2)cc1O [Example 1173]
57 | > 1000 nM | CC(C)NC(=O)c1csc(-c2oc(CNC3CCN(Cc4ccccc4)CC3)nc2-c2ccc(F)cc2)n1 [Example 1174]
58 | ≤ 1000 nM | CC(C)NC(=O)c1csc(-c2oc(CNCc3ccccc3OC(F)(F)F)nc2-c2ccc(F)cc2)n1 [Example 1175]
59 | ≤ 1000 nM | CC(C)NC(=O)c1csc(-c2oc(CNCCc3ccc(S(N)(=O)=O)cc3)nc2-c2ccc(F)cc2)n1 [Example 1176]
60 | > 1000 nM | COc1ccc(C(=O)CNCc2nc(-c3ccc(F)cc3)c(-c3nc(C(=O)NC(C)C)cs3)o2)cc1 [Example 1177]
61 | > 1000 nM | CC(C)NC(=O)c1csc(-c2oc(CNCCc3ccc4c(c3)OCO4)nc2-c2ccc(F)cc2)n1 [Example 1178]
62 | > 1000 nM | CC(C)NC(=O)c1csc(-c2oc(CNCCC(c3ccccc3)c3ccccc3)nc2-c2ccc(F)cc2)n1 [Example 1179]
63 | ≤ 1000 nM | Cc1ccc(S(=O)(=O)NCCNCc2nc(-c3ccc(F)cc3)c(-c3nc(C(=O)NC(C)C)cs3)o2)cc1 [Example 1180]
64 | > 1000 nM | CC(C)NC(=O)c1csc(-c2oc(CBr)nc2-c2ccc(F)cc2)n1 [Example 1181]
65 | ≤ 1000 nM | CC(C)NC(=O)c1csc(-c2oc(CN(C)C)nc2-c2ccc(F)cc2)n1 [Example 1182]
66 | ≤ 1000 nM | CC(C)NC(=O)c1csc(-c2oc(CN3CCOCC3)nc2-c2ccc(F)cc2)n1 [Example 1183]
67 | > 1000 nM | CCN(C)Cc1nc(-c2ccc(F)cc2)c(-c2nc(C(=O)NC(C)C)cs2)o1 [Example 1186]
68 | > 1000 nM | C#CCN(C)Cc1nc(-c2ccc(F)cc2)c(-c2nc(C(=O)NC(C)C)cs2)o1 [Example 1187]
69 | > 1000 nM | CCN(CC)Cc1nc(-c2ccc(F)cc2)c(-c2nc(C(=O)NC(C)C)cs2)o1 [Example 1188]
70 | > 1000 nM | CCCN(C)Cc1nc(-c2ccc(F)cc2)c(-c2nc(C(=O)NC(C)C)cs2)o1 [Example 1189]
71 | > 1000 nM | CC(C)NC(=O)c1csc(-c2oc(CN(C)CCO)nc2-c2ccc(F)cc2)n1 [Example 1190]
72 | > 1000 nM | CC(C)NC(=O)c1csc(-c2oc(CN(C)CCC#N)nc2-c2ccc(F)cc2)n1 [Example 1191]
73 | > 1000 nM | CC(C)CN(C)Cc1nc(-c2ccc(F)cc2)c(-c2nc(C(=O)NC(C)C)cs2)o1 [Example 1192]
74 | > 1000 nM | CCN(Cc1nc(-c2ccc(F)cc2)c(-c2nc(C(=O)NC(C)C)cs2)o1)C(C)C [Example 1193]

Source: patent US20060252807A1, “Novel ortho-terphenyl inhibitors of p38 kinase and methods of treating inflammatory disorders” (Kalypsys, Inc., priority 2005, published 2006)
